TGI and GI50 data for 16 molecules are collected here from PubChem BioAssay (NCI).

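Tested at 5 concentrations; 48 h exposure; 96-well plates; endpoints linearly interpolated, else capped at highest concentration. GI50 marks 50% less growth. TGI: total growth inhibition.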

Some test systems named below: HCT-15 colon; COLO 205 colon; U251 CNS; NCI-H460 lung; LOX IMVI melanoma; MALME-3M melanoma; SNB-19 CNS; HL-60(TB) leukemia; PC-3 prostate; HS 578T breast.
Holding throughout (assay): NCI-60 cell line screen, 48 h

As to `COC(=O)C(Cc1nc2ccc(Cl)cc2[nH]c1=O)/C(=N\N)C(=O)Nc1cc(C)c(Cl)cc1S(=O)(=O)O` (stereo not drawn), the TGI in the assay on HCT-15 colon, in the assay with COLO 205 colon, in the assay on U251 CNS, in the assay on NCI-H460 lung, in the assay with LOX IMVI melanoma and in the assay on MALME-3M melanoma was above 100 µM each time. The TGI with SNB-19 CNS is above 100 µM.

As for `O=C1/C(=C/c2ccc(Cl)cc2)CCC1CCN1CCOCC1` (stereo not drawn), the TGI with HCT-15 colon is above 100 µM; with NCI-H460 lung it was above 100 µM; in the assay on HL-60(TB) leukemia it was 85.2 µM; with LOX IMVI melanoma it was above 100 µM; with MALME-3M melanoma, above 100 µM; with SNB-19 CNS it was above 100 µM.

Turning to `Cc1ccc(NC(=O)CCc2cc(C(C)(C)C)nc(=S)[nH]2)cc1C`, the TGI in the assay on HCT-15 colon, in the assay with COLO 205 colon, with U251 CNS, in the assay with NCI-H460 lung, in the assay with HL-60(TB) leukemia and with LOX IMVI melanoma was above 100 µM in each case. Besides, the TGI in the assay with MALME-3M melanoma and in the assay with SNB-19 CNS was above 100 µM in each case.

For `COc1cccc(C2=NC(C(C)C)CO2)c1` (stereo not drawn), the TGI in the assay with HCT-15 colon, in the assay on COLO 205 colon, in the assay with NCI-H460 lung, with HL-60(TB) leukemia, with LOX IMVI melanoma and in the assay on MALME-3M melanoma was above 100 µM throughout. In the assay with SNB-19 CNS, this molecule came in with a TGI above 100 µM.

For `CCC(C)COC(=O)c1ccc(N=Cc2ccc(C=Nc3ccc(C(=O)OCC(C)CC)cc3)cc2)cc1` (stereo not drawn), the TGI in the assay on HCT-15 colon, in the assay with COLO 205 colon, in the assay with U251 CNS, in the assay on NCI-H460 lung, in the assay on HL-60(TB) leukemia and in the assay on LOX IMVI melanoma was above 100 µM in each case. Further, the TGI in the assay with MALME-3M melanoma and in the assay on SNB-19 CNS was above 100 µM throughout.

As for `CC12CP(=O)(c3ccccc3)CC1C2(Cl)Cl` (stereo not drawn), the TGI in the assay with COLO 205 colon, in the assay on U251 CNS, in the assay with NCI-H460 lung, in the assay with LOX IMVI melanoma and with SNB-19 CNS was above 100 µM in each case.

On to `Cc1cc(Cl)ccc1NC(=O)C(=O)Cc1nc2ccccc2o1`, for which the TGI in the assay on HCT-15 colon, in the assay on COLO 205 colon, in the assay with U251 CNS, in the assay with NCI-H460 lung, with HL-60(TB) leukemia and in the assay with LOX IMVI melanoma was above 100 µM throughout. Also, the TGI in the assay with MALME-3M melanoma and in the assay on SNB-19 CNS was above 100 µM in each case.

For `O=C(c1ccccc1)c1cc2ccccc2o1`, the GI50 is above 100 µM in the assay on HCT-15 colon; 85.2 µM in the assay with PC-3 prostate; above 100 µM in the assay with COLO 205 colon; 54.5 µM with U251 CNS; above 100 µM in the assay with NCI-H460 lung; 73.6 µM in the assay with LOX IMVI melanoma. Also, the GI50 is above 100 µM with MALME-3M melanoma, 37.5 µM with HS 578T breast and above 100 µM in the assay with SNB-19 CNS. Also, the TGI with HCT-15 colon, in the assay with PC-3 prostate, with COLO 205 colon, in the assay with U251 CNS, in the assay with NCI-H460 lung and in the assay with LOX IMVI melanoma was above 100 µM in each case. The TGI in the assay on MALME-3M melanoma, in the assay on HS 578T breast and in the assay on SNB-19 CNS was above 100 µM throughout.

Consider `CCOc1ccccc1NC(=O)C(=O)CC(=O)c1sc(Nc2nnc(-c3ccc(Cl)c(Cl)c3)o2)nc1C`, for which the TGI in the assay on HCT-15 colon is above 100 µM; with COLO 205 colon it was above 100 µM; with U251 CNS, 41.4 µM; with NCI-H460 lung it was above 100 µM; in the assay on HL-60(TB) leukemia it was above 100 µM; in the assay with LOX IMVI melanoma, above 100 µM. For the same molecule, the TGI in the assay with MALME-3M melanoma and with SNB-19 CNS was above 100 µM throughout.

Turning to `COc1ccc(CC2NCCc3c2[nH]c2ccccc32)cc1` (stereo not drawn), the TGI is above 100 µM in the assay on HCT-15 colon; 40.6 µM in the assay on COLO 205 colon; above 100 µM in the assay with U251 CNS; above 100 µM in the assay on NCI-H460 lung; 53.5 µM with HL-60(TB) leukemia; above 100 µM with LOX IMVI melanoma. In the assay on SNB-19 CNS, this molecule gave a TGI above 100 µM.

As for `CCN1CCC(O)(c2ccc(OC)cc2)C(C(=O)c2ccc(OC)cc2)C1` (stereo not drawn), the TGI was found to be 43.1 µM in the assay with HCT-15 colon; 55.1 µM in the assay on COLO 205 colon; 30.5 µM with U251 CNS; 59.5 µM in the assay on NCI-H460 lung; 46.9 µM in the assay on HL-60(TB) leukemia; 45.1 µM with LOX IMVI melanoma. This molecule also gave a TGI with SNB-19 CNS of 69.1 µM.

For `NC(=O)C12CC3CC(CC(F)(C3)C1)C2`, the TGI in the assay with COLO 205 colon, in the assay with U251 CNS, in the assay on NCI-H460 lung, with HL-60(TB) leukemia, in the assay on LOX IMVI melanoma and in the assay with MALME-3M melanoma was above 100 µM throughout.

With `O=c1ccn([C@H]2CSC[C@@H](CO)C2)c(=O)[nH]1`, the TGI with HCT-15 colon, in the assay with U251 CNS, in the assay on NCI-H460 lung, in the assay with HL-60(TB) leukemia, in the assay on LOX IMVI melanoma and with MALME-3M melanoma was above 100 µM throughout. For the same molecule, the TGI in the assay on SNB-19 CNS was above 100 µM.

Consider `CCCc1nc(NC#N)nc(C(=O)Nc2ccccc2)c1CC`, for which the TGI in the assay on HCT-15 colon, in the assay with U251 CNS, in the assay on NCI-H460 lung, with HL-60(TB) leukemia, in the assay on LOX IMVI melanoma and with MALME-3M melanoma was above 100 µM each time. Moreover, the TGI with SNB-19 CNS was above 100 µM.

`COc1ccc(NC(=O)/C(Cc2cc(=O)oc3cc(O)ccc23)=N\NC(C)(C)C)c(OC)c1`: the TGI with HCT-15 colon, in the assay on COLO 205 colon, in the assay on U251 CNS, with NCI-H460 lung, in the assay on HL-60(TB) leukemia and in the assay with LOX IMVI melanoma was above 100 µM each time. The TGI with MALME-3M melanoma and in the assay with SNB-19 CNS was above 100 µM in each case.

Take `C1=CC(N(c2ccccc2)C2C=CCCC2)CCC1` (stereo not drawn): the TGI in the assay with HCT-15 colon, in the assay on COLO 205 colon, in the assay with U251 CNS, with NCI-H460 lung, in the assay with HL-60(TB) leukemia and in the assay with LOX IMVI melanoma was above 100 µM in each case.
